Where two headings read alike, the source gives them in different places.
Experiments:
Format in all cases: biochemical, sunflower
wild-type PPO2 enzyme = wild-type PPO2 enzyme (Helianthus annuus, UniProt A0A251TWC2); experiment: In vitro PPO inhibition assay, wild type enzyme (Example 5)
Text: (§1) To test whether the PPO2_F383I is the main cause of the observed saflufenacil tolerance, we used an in vitro to compare the inhibition potency (IC50) of different PPO inhibiting herbicides between wild-type and mutant PPO2 enzyme. The in vitro assay assesses the oxidation of protoporphyrinogen IX to protoporphyrin IX, catalyzed by the PPO enzyme. Both the wild type and mutant PPO2 proteins were heterologously expressed in E. coli and purified. Purified protein was mixed with different concentrations of the herbicide ranging from 10^−5M to 10^−11M and protein activity was measured. Protein activity is defined as the fluorescence per minute that the reaction generates. In the reaction, the purified PPO enzyme is mixed with substrate protoporphyrinogen IX and the herbicide. The product of the reaction is excited at 405 nm and produces a fluorescence at 630 nm which we detect. IC50 (in Mol) and tolerance factor were calculated.

[1] = molecular target: PPO2_F383I mutant PPO2 enzyme (Helianthus annuus, UniProt A0A251TWC2, F383I); experiment: In vitro PPO inhibition assay, mutant enzyme (Example 5)
Text: as §1

[2] = test system: PPO2_F383I mutant PPO2 enzyme; experiment: as above; conditions: PPO2_F383I versus wild type IC50
Text: as §1

PPO2_F383I mutant PPO2 enzyme (Helianthus annuus, UniProt A0A251TWC2, F383I), sequence (A0A251TWC2 entry or part of it F383I): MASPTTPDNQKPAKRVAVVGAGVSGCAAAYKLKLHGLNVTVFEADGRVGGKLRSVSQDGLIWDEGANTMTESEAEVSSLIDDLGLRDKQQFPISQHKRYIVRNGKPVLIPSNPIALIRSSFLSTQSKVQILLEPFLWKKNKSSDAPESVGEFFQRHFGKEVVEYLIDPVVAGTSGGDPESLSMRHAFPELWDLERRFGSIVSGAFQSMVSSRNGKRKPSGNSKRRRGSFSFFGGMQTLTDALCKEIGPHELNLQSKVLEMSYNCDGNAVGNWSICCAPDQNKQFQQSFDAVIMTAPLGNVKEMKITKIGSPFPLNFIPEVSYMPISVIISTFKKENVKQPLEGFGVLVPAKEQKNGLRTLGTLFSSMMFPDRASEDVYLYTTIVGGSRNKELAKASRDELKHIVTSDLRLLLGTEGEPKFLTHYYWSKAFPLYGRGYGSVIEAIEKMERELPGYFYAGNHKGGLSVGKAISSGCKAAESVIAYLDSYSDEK
wild-type PPO2 enzyme, sequence (A0A251TWC2 entry or part of it): as the sequence (A0A251TWC2 entry or part of it F383I) above, with I383F counted along it

SMILES	IC50 (wild-type PPO2 enzyme; purified enzyme expressed in E. coli, herbicide 10^-5 M to 10^-11 M, read-out: Wild type IC50)	IC50 ([1]; purified enzyme expressed in E. coli, herbicide 10^-5 M to 10^-11 M, read-out: PPO2_F383I IC50)	Tolerance factor [2]	IC50 (wild-type PPO2 enzyme)	IC50 [1]
COC(=O)CCNC(=O)C(C)Sc1cc(-n2c(=O)cc(C(F)(F)F)n(C)c2=O)c(F)cc1Cl (stereo not drawn) [Tiafenacil]	0.93 nM	1300 nM	1398	–	–
C#CCN1C(=O)C(F)(F)Oc2cc(F)c(-n3c(=O)n(C)c(=S)n(C)c3=O)cc21 [Trifludimoxazin (Tirexor ™), 1,5-dimethyl-6-thioxo-3-(2,2,7-trifluoro-3-oxo-4-(prop-2-ynyl)-3,4-dihydro-2H-benzo[b][1,4]oxazin-6-yl)-1,3,5-triazinane-2,4-dione]	–	–	3257	1.4 nM	4560 nM
